# Results taken from patent US8901177B2, “Method of treating bladder disorders” (Targacept, Inc., priority 2012, dated 2014).
# Entries after “also recorded” stand apart in the source; their conditions may differ.
# Assays:
# [1] = assay type: in vivo, human
# Method: More recently, dexmecamylamine was evaluated as adjunctive therapy in the treatment of major depressive disorder (MDD) in a large international Phase 3 depression program. […] More than 2400 subjects have received dexmecamylamine in double-blind or open-label studies.
# No safety studies using dexmecamylamine have been performed in OAB. Phase 2 and Phase 3 clinical studies using dexmecamylamine in Major Depressive Disorder (MDD) have been conducted and completed. […] Briefly, in the fixed dose Phase 3 studies in MDD, at doses of 2 mg BID (the maximum doses to be studied in the OAB study), the most frequent treatment emergent adverse events that were reported more than 2% more commonly in the dexmecamylamine group compared to placebo group were: constipation (15.2% dexmecamylamine vs. 3.8% placebo); and dry mouth (7.0% dexmecamylamine vs. 1.3% placebo).
# NMDA receptor NR1a-NR2B = NMDA receptor NR1a-NR2B (Homo sapiens, UniProt Q05586+Q13224); assay: Glutamate-evoked currents at NR1a-NR2B receptors in Xenopus oocytes (two electrode voltage-clamp); assay type: cell-based
# Method: (§1) All experiments were carried out at receptors expressed in Xenopus oocytes using the method of cDNA expression. Currents evoked by glutamate were recorded using the standard two electrode voltage-clamp configuration (TVEC). Xenopus oocytes were prepared and injected using standard procedures.
# Briefly, ovaries are harvested from Xenopus Laevis females that have been deeply anesthetized and pithed following the animal rights rule from the Geneva canton. […] Data were filtered at 10 Hz, captured at 100 Hz and analyzed using HiQ proprietary data acquisition and analysis software running under Matlab (Mathworks Inc.).
# Oocytes expressing the NR1a-NR2A or NR1a-NR2B receptors were challenged at periodic intervals with a glutamate test pulse. Test drug was then applied during a sustained period and its effects monitored by measuring the amplitude and time course of the glutamate evoked currents. […]
# To further evaluate effects of TC-5214, experiments using sustained exposure to this compound followed by a recovery period were carried out at NR1a-NR2A and NR1a-NR2B receptors. Measurements were made with (nM) 0, 3, 10, 30, 100, 300, TC-5214 and recovery monitored during 10 minutes. […] Effects were measured in at least three cells. […]
# α4β2 = α4β2 (Homo sapiens, UniProt P17787+P43681); details: 1 μM; cited from earlier work
# [2] = molecular target: T1, α6-containing nicotinic receptors (Homo sapiens, UniProt Q15825); assay: α6-containing nicotinic receptors expressed in oocytes, stimulated with acetylcholine; assay type: cell-based; details: acetylcholine alone or with increasing concentrations
# T1 construct: expressed in transfected cells; host or cells: oocytes
# NMDA receptor NR1a-NR2A = NMDA receptor NR1a-NR2A (Homo sapiens, UniProt Q05586+Q12879); assay: Glutamate-evoked currents at NR1a-NR2A receptors in Xenopus oocytes (two electrode voltage-clamp); assay type: cell-based
# Method: as §1
# Briefly, ovaries are harvested from Xenopus Laevis females that have been deeply anesthetized and pithed following the animal rights rule from the Geneva canton. A small piece of ovary is isolated for immediate preparation while the remaining part is placed at 4° C. in a sterile Barth solution containing in mM NaCl 88, KCl 1, NaHCO3 2.4, HEPES 10, MgSO4.7H2O 0.82, Ca(NO3)2.4H2O 0.33, CaCl2.6H2O 0.41, at pH 7.4, and supplemented with 20 μg/ml of kanamycine, 100 unit/ml penicillin and 100 μg/ml streptomycin. On the second day following dissociation, oocytes are injected with 2 ng of cDNA per oocyte containing the NR1a-NR2A or NR1a-NR2B using an automated injector (Hogg et al., J. Neurosci. Methods, 2008). […] Cells were held at −80 mV. Data were filtered at 10 Hz, captured at 100 Hz and analyzed using HiQ proprietary data acquisition and analysis software running under Matlab (Mathworks Inc.).
# Oocytes expressing the NR1a-NR2A or NR1a-NR2B receptors were challenged at periodic intervals with a glutamate test pulse. Test drug was then applied during a sustained period and its effects monitored by measuring the amplitude and time course of the glutamate evoked currents.
# Experiments were carried out with the NR1a-NR2A and NR1a-NR2B at least in triplicate. Positive reference compounds (ketamine and MK-801) were tested using the same protocol.
# To further evaluate effects of TC-5214, experiments using sustained exposure to this compound followed by a recovery period were carried out at NR1a-NR2A and NR1a-NR2B receptors. Measurements were made with (nM) 0, 3, 10, 30, 100, 300, TC-5214 and recovery monitored during 10 minutes. In addition, the same experimental protocol will be used with cells in control conditions to assess the stability of the measurements. Effects were measured in at least three cells.
# A use-dependent protocol was used to identify non-competitive inhibition of the receptors. Cells expressing the NMDA receptors were tested for their sensitivity to TC-5214 at 30 nM, using the same protocol as described above. Cells from the same batch were tested in parallel using the same incubation time with an identical concentration of TC-5214 (30 nM) but in absence of pulses during the incubation time with the compound. Two glutamate pulses were applied at the end of the incubation time, and recovery monitored as for the control conditions.
# [3] = system: bladder function in anesthetized rats; assay: Intravesical model in anesthetized rats (increased bladder contraction frequency), cystometry; assay type: in vivo, rat; details: 1 μM and 10 μM intravesical infusion
# Method: Female Sprague Dawley rats (200-290 g) from Charles River France, housed in 3-4 rats per cage were anesthetized with urethane (1.2 g/kg) s.c., 3 mL/kg). A polyethylene catheter was implanted into the bladder through the dome. Ureters were tied and cut. Intravesical infusion periods with saline followed by an intravesical infusion period with one of the test compounds, hexamethonium (10 μM) or dexmecamylamine (1 and 10 μM), are depicted in FIG. 7.
# The intravesical anesthetized rat model is a model of increased bladder contraction frequency. The model is a “simplified” well established model used to evaluate OAB agents, recognizing that there are decreased inputs from cortical centers. This is the first known experiment using the intravesical anesthetized rat model of increased bladder contraction frequency to test dexmecamylamine for potential efficacy in treating OAB.
# [4] = 3, 10, 30, 100, 300 nM, Glutamate 10 μM-Glycine 1 μM
# Chain of NMDA receptor NR1a-NR2A (Q12879 23-1464, other chains not shown): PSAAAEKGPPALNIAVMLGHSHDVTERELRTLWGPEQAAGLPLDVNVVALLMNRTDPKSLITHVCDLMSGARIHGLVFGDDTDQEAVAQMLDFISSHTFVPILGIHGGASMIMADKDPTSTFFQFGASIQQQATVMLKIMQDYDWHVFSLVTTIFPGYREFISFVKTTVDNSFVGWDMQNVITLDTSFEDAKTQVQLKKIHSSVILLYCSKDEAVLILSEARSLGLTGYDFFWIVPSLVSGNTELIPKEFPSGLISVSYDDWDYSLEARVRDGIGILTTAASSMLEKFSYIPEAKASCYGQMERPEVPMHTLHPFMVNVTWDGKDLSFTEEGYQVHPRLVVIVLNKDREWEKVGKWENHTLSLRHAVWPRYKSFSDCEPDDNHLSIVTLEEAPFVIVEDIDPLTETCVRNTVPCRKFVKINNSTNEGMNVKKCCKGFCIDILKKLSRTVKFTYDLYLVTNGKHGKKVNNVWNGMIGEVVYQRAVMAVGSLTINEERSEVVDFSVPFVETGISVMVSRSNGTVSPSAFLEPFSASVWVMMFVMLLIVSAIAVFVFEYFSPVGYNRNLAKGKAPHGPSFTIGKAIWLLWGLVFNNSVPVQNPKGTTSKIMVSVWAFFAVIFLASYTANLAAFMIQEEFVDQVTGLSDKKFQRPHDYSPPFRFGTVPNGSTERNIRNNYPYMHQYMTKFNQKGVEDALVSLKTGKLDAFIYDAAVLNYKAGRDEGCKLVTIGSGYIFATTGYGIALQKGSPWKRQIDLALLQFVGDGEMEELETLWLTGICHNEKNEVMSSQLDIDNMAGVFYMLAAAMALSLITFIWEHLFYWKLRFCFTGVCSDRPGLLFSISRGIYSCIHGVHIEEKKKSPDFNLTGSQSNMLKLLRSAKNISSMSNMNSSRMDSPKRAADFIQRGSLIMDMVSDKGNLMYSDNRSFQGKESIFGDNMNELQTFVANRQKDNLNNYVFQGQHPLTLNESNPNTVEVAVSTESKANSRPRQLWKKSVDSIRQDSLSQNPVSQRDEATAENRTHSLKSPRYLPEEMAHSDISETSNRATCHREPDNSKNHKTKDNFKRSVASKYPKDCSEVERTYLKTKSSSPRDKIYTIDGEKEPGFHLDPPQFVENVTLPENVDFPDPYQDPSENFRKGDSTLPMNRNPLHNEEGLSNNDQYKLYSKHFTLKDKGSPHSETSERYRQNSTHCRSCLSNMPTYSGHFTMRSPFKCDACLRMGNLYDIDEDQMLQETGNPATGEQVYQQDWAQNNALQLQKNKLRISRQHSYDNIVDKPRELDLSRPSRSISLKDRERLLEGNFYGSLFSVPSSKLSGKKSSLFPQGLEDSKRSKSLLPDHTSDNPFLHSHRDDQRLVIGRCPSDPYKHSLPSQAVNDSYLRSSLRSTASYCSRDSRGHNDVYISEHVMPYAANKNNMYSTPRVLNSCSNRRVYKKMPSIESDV
# Chain of NMDA receptor NR1a-NR2B (Q13224 27-1484, other chains not shown): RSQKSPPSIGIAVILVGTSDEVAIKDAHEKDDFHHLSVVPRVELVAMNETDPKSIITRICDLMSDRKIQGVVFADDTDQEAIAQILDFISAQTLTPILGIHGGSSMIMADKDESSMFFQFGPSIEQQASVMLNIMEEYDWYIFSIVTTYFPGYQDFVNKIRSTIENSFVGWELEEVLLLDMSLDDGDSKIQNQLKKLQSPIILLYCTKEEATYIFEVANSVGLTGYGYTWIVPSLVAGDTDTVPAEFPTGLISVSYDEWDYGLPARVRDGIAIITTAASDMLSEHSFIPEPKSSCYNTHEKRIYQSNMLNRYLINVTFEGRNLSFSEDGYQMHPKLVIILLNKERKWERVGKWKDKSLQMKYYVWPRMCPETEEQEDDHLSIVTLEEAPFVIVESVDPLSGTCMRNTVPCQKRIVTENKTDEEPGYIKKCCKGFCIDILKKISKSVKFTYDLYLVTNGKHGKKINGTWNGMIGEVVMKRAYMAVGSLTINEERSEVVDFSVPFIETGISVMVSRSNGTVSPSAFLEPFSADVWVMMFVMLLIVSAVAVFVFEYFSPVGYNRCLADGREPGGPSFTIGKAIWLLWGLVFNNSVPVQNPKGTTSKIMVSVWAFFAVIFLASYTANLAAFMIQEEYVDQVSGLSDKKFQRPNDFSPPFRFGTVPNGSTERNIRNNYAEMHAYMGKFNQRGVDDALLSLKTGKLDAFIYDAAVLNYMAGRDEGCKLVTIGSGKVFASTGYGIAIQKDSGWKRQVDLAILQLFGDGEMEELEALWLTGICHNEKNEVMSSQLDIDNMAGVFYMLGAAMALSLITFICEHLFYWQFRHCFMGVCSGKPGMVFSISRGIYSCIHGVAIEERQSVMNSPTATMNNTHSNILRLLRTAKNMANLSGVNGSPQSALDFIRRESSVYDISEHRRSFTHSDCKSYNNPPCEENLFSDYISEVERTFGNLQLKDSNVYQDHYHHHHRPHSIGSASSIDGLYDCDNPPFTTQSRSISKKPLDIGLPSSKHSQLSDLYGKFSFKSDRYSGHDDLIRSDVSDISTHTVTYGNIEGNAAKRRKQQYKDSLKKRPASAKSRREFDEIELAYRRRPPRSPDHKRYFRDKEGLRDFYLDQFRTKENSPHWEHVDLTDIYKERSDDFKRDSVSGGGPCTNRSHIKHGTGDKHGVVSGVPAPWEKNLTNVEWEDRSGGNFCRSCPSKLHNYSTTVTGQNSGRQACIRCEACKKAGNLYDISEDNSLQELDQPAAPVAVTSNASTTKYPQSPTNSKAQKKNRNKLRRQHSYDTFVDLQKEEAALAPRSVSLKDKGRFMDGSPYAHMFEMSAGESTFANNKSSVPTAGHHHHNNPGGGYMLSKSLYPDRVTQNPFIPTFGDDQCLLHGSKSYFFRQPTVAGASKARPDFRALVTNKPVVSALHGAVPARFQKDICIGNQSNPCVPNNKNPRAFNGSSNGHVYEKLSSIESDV
# T1 sequence (Q15825 26-494): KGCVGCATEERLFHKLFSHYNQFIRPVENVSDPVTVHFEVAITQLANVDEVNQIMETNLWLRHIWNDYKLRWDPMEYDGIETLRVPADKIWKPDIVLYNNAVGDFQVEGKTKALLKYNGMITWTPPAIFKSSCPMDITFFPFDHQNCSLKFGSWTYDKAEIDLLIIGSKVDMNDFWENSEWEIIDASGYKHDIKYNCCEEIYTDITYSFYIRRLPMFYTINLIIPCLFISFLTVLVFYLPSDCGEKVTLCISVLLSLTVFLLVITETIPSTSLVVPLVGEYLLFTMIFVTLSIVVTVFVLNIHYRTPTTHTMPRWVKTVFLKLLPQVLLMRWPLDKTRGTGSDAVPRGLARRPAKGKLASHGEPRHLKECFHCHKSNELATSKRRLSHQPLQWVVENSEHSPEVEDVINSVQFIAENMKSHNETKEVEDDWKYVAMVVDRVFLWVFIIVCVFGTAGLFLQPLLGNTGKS
# Chain of α4β2 (P43681 29-627 limits assumed): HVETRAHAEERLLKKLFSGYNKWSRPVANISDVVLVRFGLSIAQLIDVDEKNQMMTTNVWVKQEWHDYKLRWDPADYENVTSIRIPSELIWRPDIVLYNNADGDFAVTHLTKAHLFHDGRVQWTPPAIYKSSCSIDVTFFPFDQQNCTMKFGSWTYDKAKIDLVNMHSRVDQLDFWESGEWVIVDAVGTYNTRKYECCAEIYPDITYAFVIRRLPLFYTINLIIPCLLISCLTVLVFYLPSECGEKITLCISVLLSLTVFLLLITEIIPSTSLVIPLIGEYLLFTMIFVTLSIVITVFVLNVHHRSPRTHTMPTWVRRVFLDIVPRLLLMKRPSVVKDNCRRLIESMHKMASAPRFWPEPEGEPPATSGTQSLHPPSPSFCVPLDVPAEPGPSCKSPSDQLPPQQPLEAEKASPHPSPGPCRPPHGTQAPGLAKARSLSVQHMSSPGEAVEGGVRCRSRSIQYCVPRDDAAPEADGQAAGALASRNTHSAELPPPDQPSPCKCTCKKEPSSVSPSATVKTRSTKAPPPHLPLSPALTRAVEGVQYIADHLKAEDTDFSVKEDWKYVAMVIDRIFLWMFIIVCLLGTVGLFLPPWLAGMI
# Chain of α4β2 (P17787 26-502): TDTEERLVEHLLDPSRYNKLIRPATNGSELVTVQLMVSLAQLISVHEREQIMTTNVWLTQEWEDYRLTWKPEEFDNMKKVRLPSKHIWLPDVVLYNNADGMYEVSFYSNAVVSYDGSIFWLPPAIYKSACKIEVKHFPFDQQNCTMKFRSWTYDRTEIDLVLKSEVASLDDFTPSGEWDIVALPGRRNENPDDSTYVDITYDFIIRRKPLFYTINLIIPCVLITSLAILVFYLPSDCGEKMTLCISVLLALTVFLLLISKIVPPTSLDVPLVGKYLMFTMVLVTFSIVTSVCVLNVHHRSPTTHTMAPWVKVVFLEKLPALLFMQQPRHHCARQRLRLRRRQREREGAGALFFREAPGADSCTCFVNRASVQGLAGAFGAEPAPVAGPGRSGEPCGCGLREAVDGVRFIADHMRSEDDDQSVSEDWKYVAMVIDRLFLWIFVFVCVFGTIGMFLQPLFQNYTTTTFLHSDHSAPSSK
smiles,measurement,setting,value
"CNC1(C)[C@H]2CCC(C2)C1(C)C (stereo partly drawn) [TC-5214, (S)—N,2,3,3-tetramethylnorbornan-2-amine]",efficacy in the treatment of depression,"[1]; adjunctive therapy, Phase 3 program",failed to demonstrate efficacy
same,"vital signs, blood or urine laboratory measurements, ECG conduction intervals, suicidality","[1]; human, in vivo",no noteworthy differences
same,extent of inhibition over concentration range (FIG. 22),NMDA receptor NR1a-NR2B; [4],partial inhibition
same,concentration at which it potently inhibits,NMDA receptor NR1a-NR2B; FIG. 23 legend,10 to 30 nM
same,modulation of α4β2 function,α4β2,positive modulation
same,sensitivity of α6-containing nicotinic receptors,[2],sensitive
same,extent of inhibition over concentration range (FIG. 22),NMDA receptor NR1a-NR2A; [4],complete inhibition
same,concentration at which it potently inhibits,NMDA receptor NR1a-NR2A; FIG. 23 legend,10 to 30 nM
same,recovery following wash-out,NMDA receptor NR1a-NR2A; after sustained exposure,clear evidence for recovery
same,bladder capacity (BC),[3],statistically significant increase
same,inter-contraction interval (ICI),[3],statistically significant increase
same,micturition frequency (MF),[3],statistically significant decrease
same,bladder contraction amplitude (AM),[3]; listed as dexmecamylamine,no significant decrease; also recorded: no significant change
